Results taken from article PMC9503459, “Antifungal Activity, Structural Stability, and Immunomodulatory Effects on Human Immune Cells of Defensin from the Lentil Lens culinaris” (Membranes, 2022).
No end group written: not given here.

Tests used:
[1] = test system: human red blood cells (hRBC); test: Hemolytic assay; type: cell-based; conditions: 100 μM, 4% hRBC in PBS pH 7.2, 1.5 h, 37 °C, A405
Protocol: Hemolytic activity of Lc-def was studied using 96-well microplates. Fresh human red blood cells (hRBC) were washed three times with ice-cold PBS, pH 7.2. Serial two-fold dilutions of Lc-def and membrane-active peptide melittin from the venom of honeybees as positive control (final concentrations from 0.1 to 100 μM) were then added to hRBC in PBS (final concentration of 4% (v/v)). The suspension was incubated for 1.5 h at 37 °C. After, intact hRBC sedimentation aliquots of the supernatants containing released hemoglobin were transferred to 96-well microplates, and the absorbance at 405 nm was measured. hRBC in PBS or 0.1% Triton X-100 were employed as negative (control0) and positive (control100) controls, respectively. The percentage of hemolysis was calculated as: hemolysis(%) = ((Asample − Acontrol0)/(Acontrol100 − Acontrol0)) × 100%. Experiment was carried out twice in triplicate using the same blood.

[2] = test system: proteolytic enzymes of Candida albicans; test: Influence of defensins on degradation of proteins by C. albicans lysate; type: biochemical; conditions: SDS-PAGE
Protocol: For study of Lc-def sensitivity to the clinical isolate of C. albicans, lysates of yeast cells in different concentration and pH were used basically as previously described for rhesus macaque θ-defensin 1 [22]. Cells were inoculated onto modified YPD medium and grown at 37 ℃ for 48 h before reaching the stationary phase of growth. Cells were harvested by centrifugation, washed two times in sterile phosphate buffered saline (PBS), pH 7.2, or sterile 40 mM sodium acetate, pH 4.0, and resuspended in the corresponding buffer to final concentrations of 1 × 10^9 cells/mL or 1 × 10^3 cells/mL. Two freeze-thaw cycles in liquid nitrogen were used for cell disruption, and supernatants were collected following centrifugation. Supernatants (12.5 μL) were mixed with water solutions (37.5 μL) of Lc-def, α-casein, Psd1, or LL-37 in concentration of 0.67 mg/mL and incubated at 37 ℃ for 72 or 24 h in the case of high or low cell concentration, respectively. To study the possible influence of Lc-def and Psd1 on the degradation process, supernatants (12.5 μL) were mixed with both α-casein or LL-37 in concentration of 1 mg/mL (25 μL) and Lc-def or Psd1 in concentration of 2 mg/mL (12.5 μL). As negative controls, α-casein and peptides were mixed with buffers as well as supernatants were mixed with water without the proteins. The samples were mixed with sample buffer without β-mercaptoethanol (BME), heated at 100 ℃ for 2 min, and analyzed by sodium dodecyl sulfate polyacrylamide gel electrophoresis (SDS-PAGE). Some independent experiments were performed in each case.

[3] = test system: phytopathogenic filamentous fungi including Aspergillus niger; conditions: some, but not all, tested fungi including Aspergillus niger; cited from earlier work
[4] = test system: Gram-positive or Gram-negative bacteria; conditions: cited from earlier work
[5] = C. albicans lysate 10^3 cells/mL, pH 7.2, up to 24 h

## Lc-def: defensin from lentil Lens culinaris seeds (UniProt:B3F051), recombinant, overexpressed in Escherichia coli (KTCENLSDSFKGPCIPDGNCNKHCKEKEHLLSGRCRDDFRCWCTRNC; disulfide (positions not given here); ends not checked; also: disulfide bonds present, pairing not given here; UniProt B3F051 28-74, looked up)
[1]
  hemolysis of erythrocytes: did not cause hemolysis
[2]; [5]
  influence on LL-37 degradation: did not decrease LL-37 degradation
  influence on the rate of α-casein degradation: decreased the rate of α-casein degradation
[2]; C. albicans lysate 10^9 cells/mL
  influence on degradation of the major protein of C. albicans: decrease in degradation
[3]
  activity against phytopathogenic filamentous fungi: active
[4]
  effect on growth of bacteria: did not affect the growth
